Here are results for 25 molecules from patent US12466817B2, “Pyridine derivative and application thereof” (Nicoya Therapeutics (Shanghai) Co., Ltd, priority 2020, dated 2025).

One series concerns the target T1, CYP3A4 (Homo sapiens, UniProt P08684).
T1 construct: from tissue; host or cells: human liver microsomes
As to the kind of experiment: Inhibition of human liver microsomal CYP3A4 activity. The class given is in vitro ADME. Conditions: human liver microsomes, conclusion. How it is done: A total of five specific probe substrates for the five isozymes of CYP, phenacetin (CYP1A2), diclofenac (CYP2C9), (S′)-mephenytoin (CYP2C19), dextromethorphan ([…]), and midazolam (CYP3A4), were incubated respectively with human liver microsomes and the test compounds, and the reaction was initiated by the addition of reduced nicotinamide adenine dinucleotide phosphate (NADPH), and the samples were treated and the concentrations of the five metabolites produced by the specific substrates, acetaminophen, 4′-hydroxydiclofenac, 4′-hydroxymephenytoin, dextrorphan and 1′-hydroxymidazolam were measured by liquid chromatography tandem mass spectrometry (LC-MS/MS) after the end of the reaction, and the corresponding half maximal inhibitory concentrations (IC50) were calculated.
Background: Liver microsomes are vesicles of endoplasmic reticulum, rich in cytochrome P450 enzymes.

The next series concerns the target T2, CCR2 (Homo sapiens, UniProt P41597).
T2 construct: expressed in transfected cells; host or cells: HEK293, clone C7, passage P6
As to the kind of experiment: CCR2 FLIPR Calcium assay (intracellular calcium signaling). Conditions: HEK293 host cells, clone C7; agonist MCP-1; Fluo-4 calcium signal. It is filed as cell-based. Here is the method: (§1) The inhibitory effects of the compounds on CCR2 and CCR5 receptors were evaluated by detecting intracellular calcium signaling changes by FLIPR Calcium assay, using the IC50 values of the compounds as indicators.
(§2) 1. Cell lines: The cells were seeded and incubated overnight at 37° C. in a 5% CO2 incubator CCR2/CCR5 density: 1 M (20 k/well)
(§3) 2. Reagent: Fluo-4 Direct, (Invitrogen, Cat #F10471)
(§4) The compound was prepared by dissolving in DMSO to a 10 mM solution, and the compound solution was placed in a nitrogen chamber.
(§5) Preparation of probenecid in FLIPR assay buffer: 1 mL of FLIPR assay buffer was added to 77 mg of probenecid to make a 250 mM solution. The solution was prepared every day to keep fresh.
(§6) 2× (8 μM) Fluo-4 Direct™ loading buffer (10 mL of each)
(§7) 0.2 mL of probenecid was added to each 10 mL of Fluo-Direct. The final measured concentration was 2.5 mM MCP-1 was diluted in FLIPR assay buffer 1:2 for 10 spots, starting at 0.5 μM (eventually to […]). RANTES was diluted in FLIPR assay buffer 1:3 for 10 spots, starting at 0.5 μM (eventually to […]). 20 μL of serially diluted compound buffer was added to each well of the DRC plate.
(§8) The standard compound was diluted in DMSO 1:3 for 11 points, starting at 1 mM.
(§9) The test compound was diluted in DMSO 1:3 for 11 spots, starting at 2 mM. 250 nL of compound solution was transferred to cell plates using Echo (Greiner #781946) c) The cell plate was taken from the incubator and 20 μL of 2× Fluo-4 Direct no wash loading buffer was gently dispensed into a 384-well cell culture plate using a pipette. The volume in the final cell plate was 40 μL […]
(§10) d) Incubation was conducted at 37° C. 5% CO2 for 50 minutes, at room temperature for 10 minutes e) The cell plate was taken from the incubator and placed in the FLIPR. The composite plate and pipette tip box were placed in the FLIPR
(§11) 5) The “Max-Min” was calculated from Read 90 to the maximum allowed. EC80 values for each cell line were calculated using FLIPR
(§12) 6) Agonist reference compound at 5 times EC80 concentration was prepared 2) 10 μL of agonist reference compound at 5 times EC80 concentration was transferred from the composite plate to the cell plate.
(§13) 3) Fluorescence signals were read.
(§14) 4) The “Max-Min” was calculated from Read 90 to the maximum allowed h) Data was analyzed by using Prism, the IC50 values of the compounds were calculated.

The target of a further series is T3, CCR5 (Homo sapiens, UniProt P51681).
T3 construct: expressed in transfected cells; host or cells: HEK293, clone C13, passage P4
T3 sequence (P51681 whole entry, species assumed): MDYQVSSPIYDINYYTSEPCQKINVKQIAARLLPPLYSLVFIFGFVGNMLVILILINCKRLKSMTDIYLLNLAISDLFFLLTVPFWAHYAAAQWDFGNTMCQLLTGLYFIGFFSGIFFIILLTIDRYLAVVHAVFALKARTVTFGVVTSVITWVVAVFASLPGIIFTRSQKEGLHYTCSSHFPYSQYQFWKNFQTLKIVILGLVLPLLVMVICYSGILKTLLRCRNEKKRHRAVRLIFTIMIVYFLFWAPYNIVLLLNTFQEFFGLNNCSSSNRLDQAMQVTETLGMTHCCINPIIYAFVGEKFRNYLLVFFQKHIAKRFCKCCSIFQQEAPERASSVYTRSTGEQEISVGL
As to the kind of experiment: CCR5 FLIPR Calcium assay (intracellular calcium signaling). The class given is cell-based. Conditions: HEK293 host cells, clone C13; agonist RANTES; Fluo-4 calcium signal. How it is done: as §1, §2, §3, §4, §5, §6, §7, §8, §9, §10, §11, §12, §13, §14
(A change in cytosolic calcium serves as a functional read-out for many receptors and channels.)

A short description of series [1]: Comparative pharmacokinetic test in mice. The class given is in vivo, C57BL/6 male mice. Conditions: mice. How it is done:
C57BL/6 male mice were used as test animals in the present study, and the plasma drug concentrations of the test compound WX009 and the reference compound in mice by intravenous administration or oral administration were quantified by LC/MS/MS method at different time points respectively to evaluate the pharmacokinetic characteristics of the two test drugs in mice.
A clarified solution of the test compound was injected via tail vein into C57BL/6 mice (overnight fasting, 7-10 weeks old), and the test compound was given by gavage into C57BL/6 mice (overnight fasting, 7-10 weeks old). Approximately 30 μL of blood was collected from the jugular or tail vein at 0.0833, 0.25, 0.5, 1, 2, 4, 6, 8, and 24 hours after administration, and placed in anticoagulation tubes added with EDTA-K2, then centrifuged at 4° C. for 15 minutes at 3000 g to give the plasma. Plasma drug concentration was determined by LC-MS/MS, and relevant pharmacokinetic parameters were calculated using WinNonlin™ Version 6.3 (Pharsight, Mountain View, CA) pharmacokinetic software with a non-compartmental model linear logarithmic trapezoidal method.

T2 sequence (P41597 whole entry, species assumed): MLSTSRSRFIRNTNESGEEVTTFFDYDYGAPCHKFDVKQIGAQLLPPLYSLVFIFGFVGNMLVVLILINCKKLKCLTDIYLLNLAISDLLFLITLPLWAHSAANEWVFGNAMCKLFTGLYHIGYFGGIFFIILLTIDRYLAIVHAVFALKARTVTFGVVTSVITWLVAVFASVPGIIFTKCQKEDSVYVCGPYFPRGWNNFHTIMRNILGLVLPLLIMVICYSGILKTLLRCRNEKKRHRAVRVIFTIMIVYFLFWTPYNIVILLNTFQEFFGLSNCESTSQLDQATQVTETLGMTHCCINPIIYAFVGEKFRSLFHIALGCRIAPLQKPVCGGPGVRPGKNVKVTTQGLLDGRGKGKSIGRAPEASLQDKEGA
T1 sequence (P08684 whole entry): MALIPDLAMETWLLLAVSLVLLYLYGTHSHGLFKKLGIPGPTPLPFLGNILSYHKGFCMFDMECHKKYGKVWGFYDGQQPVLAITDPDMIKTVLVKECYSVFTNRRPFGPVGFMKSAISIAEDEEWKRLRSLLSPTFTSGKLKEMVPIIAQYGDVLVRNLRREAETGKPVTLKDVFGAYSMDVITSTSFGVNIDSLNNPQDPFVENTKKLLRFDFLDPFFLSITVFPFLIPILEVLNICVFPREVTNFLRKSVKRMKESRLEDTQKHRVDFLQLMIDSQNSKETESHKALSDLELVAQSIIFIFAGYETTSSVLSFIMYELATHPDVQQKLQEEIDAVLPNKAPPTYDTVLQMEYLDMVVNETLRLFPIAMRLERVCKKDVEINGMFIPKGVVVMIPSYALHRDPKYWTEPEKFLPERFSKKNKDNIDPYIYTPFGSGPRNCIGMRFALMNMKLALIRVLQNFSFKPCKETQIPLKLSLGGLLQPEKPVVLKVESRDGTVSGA

Regarding `CCCCOCCOc1ccc(-c2ccc3c(c2)/C=C(/C(=O)Nc2ccc([S@@+]([O-])Cc4cncn4CCC)cc2)CCCN3CC2CC2)cc1` [Reference A, reference compound], the “Inhibition of CYP3A4 (in words)” value on CYP3A4 is recorded as “strong inhibition”.
For the molecule `CCCCOCCOc1ccc(-c2ccc3c(c2)C=C(C(=O)Nc2ccc([S+]([O-])Cc4cnc(C)cc4CC)cc2)CCCN3CC2CCOCC2)cc1` (single isomer, unassigned) [WX013], on CCR2, the IC50 came to 19.9 nM.
Turning to “Cenicriviroc [(Cenicriviroc), reference compound]”, the entries for the “Inhibition of CYP3A4 (in words)” value on CYP3A4 (listed as reference compound) and at CYP3A4 (listed as reference compounds) were “strong inhibitory effect” and “strong inhibition”, respectively.
Turning to `CCCCOCCOc1ccc(-c2ccc3c(c2)C=C(C(=O)Nc2ccc([S+]([O-])Cc4cnccc4CC)cc2)CCCN3CC2CCCO2)cc1` (single isomer, unassigned) [WX005], the IC50 worked out at 8.9 nM at CCR5 and 20.9 nM on CCR2.
As to `CCCCOCCOc1ccc(-c2ccc3c(c2)C=C(C(=O)Nc2ccc([S+]([O-])Cc4c(CC)ccnc4C)cc2)CCCN3CC2CCOCC2)cc1` (single isomer, unassigned) [WX006], the IC50 on CCR2 was 15.9 nM.
Consider `CCCCOCCOc1ccc(-c2ccc3c(c2)/C=C(/C(=O)Nc2ccc([S@+]([O-])Cc4cnc(C)cc4CC)cc2)CCCN3C[C@H]2CCCO2)cc1` (single isomer, unassigned) [WX016], for which the IC50 at CCR5 came out at 16.4 nM; at CCR2, 1.75 nM.
For the molecule `CCCCOCCOc1ccc(-c2ccc3c(c2)/C=C(/C(=O)Nc2ccc([S+]([O-])Cc4cnc(C)cc4C)cc2)CCCN3CC2CCOCC2)cc1` (stereo not shown) [WX022], the IC50 at CCR5 is 13.6 nM.
With `CCCCOCCOc1ccc(-c2ccc3c(c2)C=C(C(=O)Nc2ccc([S+]([O-])Cc4cnccc4CC)cc2)CCCN3CC2CCCO2)cc1` (single isomer, unassigned) [WX004], the IC50 on CCR5 worked out at 6.47 nM; on CCR2, 19.4 nM.
Take `CCCCOCCOc1ccc(-c2ccc3c(c2)/C=C(/C(=O)Nc2ccc([S+]([O-])Cc4c(C)ccnc4C)cc2)CCCN3CC2CCCO2)cc1` (single isomer, unassigned) [WX020]: on CCR5, the IC50 came to 5.61 nM.
Same read-out and setting: the value for `CCCCOCCOc1ccc(-c2ccc3c(c2)/C=C(/C(=O)Nc2ccc([S+]([O-])Cc4cnc(C)cc4C)cc2)CCCN3CC2CCCO2)cc1` (single isomer, unassigned) [WX023] was 9.71 nM.
Consider `CCCCOCCOc1ccc(-c2ccc3c(c2)C=C(C(=O)Nc2ccc([S+]([O-])Cc4c(CC)ccnc4C)cc2)CCCN3CC2CCCO2)cc1` (single isomer, unassigned) [WX008], for which the IC50 at CCR2 stood at 15.2 nM.
As for `CCCCOCCOc1ccc(-c2ccc3c(c2)C=C(C(=O)Nc2ccc([S+]([O-])Cc4cnccc4CC)cc2)CCCN3CC2COCCO2)cc1` (single isomer, unassigned) [WX002], the IC50 worked out at 7.47 nM at CCR5 and 19.5 nM at CCR2.
On to `CCCCOCCOc1ccc(-c2ccc3c(c2)C=C(C(=O)Nc2ccc([S+]([O-])Cc4cnccc4CC)cc2)CCCN3CC2COCCO2)cc1` (single isomer, unassigned) [WX003], for which the IC50 was 11.7 nM at CCR5 and 16.5 nM at CCR2.
On to `CCCCOCCOc1ccc(-c2ccc3c(c2)/C=C(/C(=O)Nc2ccc([S+]([O-])Cc4cnc(C)cc4C)cc2)CCCN3CC2CCCO2)cc1` (single isomer, unassigned) [WX024], for which, on CCR5, the IC50 was 11.3 nM.
Take `CCCCOCCOc1ccc(-c2ccc3c(c2)/C=C(/C(=O)Nc2ccc([S@+]([O-])Cc4c(CC)ccnc4C)cc2)CCCN3C[C@H]2CCCO2)cc1` (single isomer, unassigned) [WX010]: the IC50 on CCR2 amounted to 13.7 nM.
In the case of `CCCCOCCOc1ccc(-c2ccc3c(c2)/C=C(/C(=O)Nc2ccc([S@@+]([O-])Cc4cncn4CCC)cc2)CCCN3CC(C)C)cc1` [(Cenicriviroc), Cenicriviroc, reference compound], the half-life in series [1] (male, C57BL/6, mouse, plasma, intravenous injection 2 mg/kg) was 3.55 h. In addition, in series [1] (male, C57BL/6, mouse, plasma, intravenous injection 2 mg/kg, read-out: Plasma clearance rate), the clearance amounted to 2.28 mL/min/kg. This molecule also had a bioavailability in series [1] (male, C57BL/6, mouse, plasma, oral 10 mg/kg) of 6.02%. For the same molecule, in series [1] (oral 10 mg/kg), the “Area under the time-concentration curve (0-inf)” value worked out at 6.401 µM·h, the Peak concentration is on record as 1533 nM and the Peak time was 1.0 h.
As to `CCCCOCCOc1ccc(-c2ccc3c(c2)/C=C(/C(=O)Nc2ccc([S+]([O-])Cc4c(C)ccnc4C)cc2)CCCN3CC2CCCO2)cc1` (single isomer, unassigned) [WX021], on CCR5, the IC50 was 5.89 nM.
In the case of `CCCCOCCOc1ccc(-c2ccc3c(c2)/C=C(/C(=O)Nc2ccc([S+]([O-])Cc4cnccc4CC)cc2)CCCN3CC2CCOCC2)cc1` (stereo not shown) [WX001], the results for the IC50 on CCR5 and on CCR2 were 4.36 nM and 17.6 nM, respectively.
`CCCCOCCOc1ccc(-c2ccc3c(c2)/C=C(/C(=O)Nc2ccc([S@+]([O-])Cc4c(CC)ccnc4CC)cc2)CCCN3CC2CCOCC2)cc1` [WX025]: the IC50 at CCR5 was found to be 4.26 nM; on CCR2, 2.26 nM.
For `CCCCOCCOc1ccc(-c2ccc3c(c2)/C=C(/C(=O)Nc2ccc([S@+]([O-])Cc4cnc(C)cc4CC)cc2)CCCN3C[C@H]2CCCO2)cc1` (single isomer, unassigned) [WX017], at CCR2, the IC50 was 34 nM.
Take `CCCCOCCOc1ccc(-c2ccc3c(c2)C=C(C(=O)Nc2ccc([S+]([O-])Cc4cnc(C)cc4CC)cc2)CCCN3CC2CCCO2)cc1` (single isomer, unassigned) [WX014]: the results for the IC50 on CCR5 and on CCR2 were 12.1 nM and 1.39 nM, respectively.
Turning to `CCCCOCCOc1ccc(-c2ccc3c(c2)C=C(C(=O)Nc2ccc([S+]([O-])Cc4cnc(C)cc4CC)cc2)CCCN3CC2CCCO2)cc1` (single isomer, unassigned) [WX015], the concentration for half-maximal inhibition (IC50) at CCR2 was 21.4 nM.
Take `CCCCOCCOc1ccc(-c2ccc3c(c2)C=C(C(=O)Nc2ccc([S+]([O-])Cc4c(C)ccnc4C)cc2)CCCN3CC2CCOCC2)cc1` (single isomer, unassigned) [WX018]: the IC50 on CCR5 was 15.2 nM.
On the same count and under the same terms, the value for `CCCCOCCOc1ccc(-c2ccc3c(c2)C=C(C(=O)Nc2ccc([S+]([O-])Cc4c(C)ccnc4C)cc2)CCCN3CC2CCOCC2)cc1` (single isomer, unassigned) [WX019] was 3.9 nM.
With `CCCCOCCOc1ccc(-c2ccc3c(c2)/C=C(/C(=O)Nc2ccc([S@+]([O-])Cc4c(CC)ccnc4C)cc2)CCCN3C[C@H]2CCCO2)cc1` (single isomer, unassigned) [WX011], the values for the IC50 on CCR5 and on CCR2 were 3.79 nM and 1.15 nM, respectively.

One may read the IC50 as the concentration that inhibits the measured activity by half. As a reminder, the half-life is how long it takes for the measured level to halve. Lower therefore signals rapid decline. The clearance is a measure of how efficiently the substance is removed, as volume per time. Broadly, the bioavailability is the share of a dose that reaches the circulation, judged against a reference dose that is usually intravenous.
